Source: publication PMC3025356, “Mechanism of the Ca^2+-Dependent Interaction between S100A4 and Tail Fragments of Nonmuscle Myosin Heavy Chain IIA” (Journal of Molecular Biology, 2011)
Where two headings read alike, the source gives them in different places.

What was measured:
S100A4 [1] = molecular target: T1, S100A4 (Homo sapiens, UniProt P26447); experiment: Stopped-flow fluorescein fluorescence, kinetics of myosin peptide binding to S100A4; settings: for dissociation rate constants, F-M16N vs M32: modelled
T1 construct: We used full-length S100A4 for this analysis; made in house; host or cells: Escherichia coli BL21(DE3)
Procedure: (§1) Stopped-flow measurements were carried out using an SX18-MV apparatus (Applied Photophysics Ltd., Leatherhead, UK) with a dead time of 1.5 ms.[40] Records were generally captured on a logarithmic time base. Absorption (turbidity) measurements were usually recorded using a 10-mm pathlength, while fluorescence was recorded with a 2-mm pathlength for excitation and emission. The stated concentrations of components refer to the reaction chamber after mixing, unless otherwise indicated. Tyrosine fluorescence was excited at 280 nm, and the emission was collected through a UG11 bandpass filter plus a 305-nm longpass filter.[18] Fluorescein fluorescence was excited at 480 nm, and the emission was detected through a 515-nm longpass filter. Quin-2 fluorescence was measured by excitation at 336 nm, and emission was collected with a 455-nm longpass filter. For simultaneous recording of light scatter, a second channel was monitored through a UG11 filter. Rate constants were obtained by fitting to single-exponential or double-exponential functions using Kaleidagraph (Synergy Software) or Applied Photophysics Pro-Data software. Modeling of kinetic schemes was performed using Berkeley Madonna software.
The value of K5 (scheme 2) was estimated from two independent experiments. From the competition
(§2) A second estimate was calculated from the apparent Ca2+ binding constant observed in the turbidity assay […]
Fig. S2. (a) Displacement of 0.1
monitored by fluorescein emission intensity. […] (b)
Ca2+ was mixed with 1 mM EGTA. […] Note in these
stopped-flow measurements of fluorescein intensity, no polarising optics were present at the magic angle

S100A4 [2] = molecular target: T1, S100A4; experiment: Summary of rate and equilibrium constants defined according to Scheme 1; format: binding; settings: for k− 3: Ca^2+ dissociation from peptide–S100A4–Ca^2+; for k2: peptide association to S100A4–Ca^2+; for k− 2: peptide dissociation from S100A4–Ca^2+
Excerpt: The interaction of myosin tail fragments (M) with S100A4 depends on [Ca^2+], with little detectable binding in the absence of Ca^2+.[2,7,17] Scheme 1 presents a minimal pathway describing the thermodynamics and kinetics of this interaction, where arrow lengths indicate the approximate position of the equilibria involved.
[formula] Scheme 1 Ca2+ and myosin peptide (M) binding to S100A4.
The binding of Ca^2+ and a target peptide to S100A4, as shown in Scheme 1, is thermodynamically coupled so that K1K2 = K0K3. For simplicity, we assume a 1:1 stoichiometry and independent binding sites, which are unlikely to be true at least for the longer fragments. However, the trends in binding remain valid for more complex cases. Binding of target peptides to S100A4 in the absence of Ca^2+ is weak (K0 > 100 μM), while binding of target peptides to S100A4 in the presence of Ca^2+ (K2) is around a micromolar or less for longer fragments. Knowing that Ca^2+ binding to S100A4 has K1 = 2–5 μM (from the ITC data above and the literature[14,17,18]) requires that Ca^2+ binding to the M–S100A4 complex be very tight (K3 < 0.15 μM and even lower for M200). The latter cannot be easily determined directly as it requires protein concentrations greater than K0 (i.e., >>100 μM) so that the proteins remain bound together throughout the titration with Ca^2+. However, K3 is readily determined by calculation because values or limits for K0, K1, and K2 are available (Table 2). This aspect is addressed further below for M200, which has the complication of forming filaments at the ionic strength used.

S100A4 [3] = molecular target: T1, S100A4; experiment: Fluorescence anisotropy titration, F-M16^N binding to S100A4
Procedure: Titration (circles) was carried out in 20 mM NaCl, 10 mM Hepes, 1 mM Mg^2+, and 100 μM Ca^2+ at pH 7.5 and 20 °C. […] (squares).
Fluorescence spectra and anisotropy measurements were recorded using an SLM 8000 spectrofluorimeter (SLM, Urbana, IL). Fluorescein anisotropy measurements were carried out in L-format using a 515-nm emission filter. The four combinations of vertical and horizontal polarisers (vv, vh, hh, and hv) were each recorded for 30 s, and then the initial setting (vv) was re-read to check for signal stability. Calculations of the total fluorescence (Ivv + 2Ivh) and anisotropy (Ivv − Ivh/(Ivv + 2Ivh)), corrected for the g factor (hh/hv), were performed using an Excel spreadsheet. […] Note that the small correction for the emission intensity weighting to the observed anisotropy was not applied to these competitive titrations as the error will tend to cancel.

S100A4 [4] = molecular target: T1, S100A4; experiment: Quin-2 fluorescence, Ca^2+ dissociation from S100A4 in the presence of target peptides; format: binding
Procedure: Ca^2+ dissociation measurements for wild-type S100A4, using Quin-2 as described above, were repeated as a control for the effect of target peptides on this process. On mixing 10 μM S100A4 in the presence of Ca^2+ with 100 μM Quin-2, the observed profile was fitted to a single exponential with kobs = 17 s^− 1 (Fig. 5a; cf. k− 1 in Scheme 1).
Fig. 5 Dissociation of Ca^2+ from S100A4 in the absence and in the presence of target peptides monitored using Quin-2 fluorescence. (a) Mixed with 100 μM Quin-2 was 10 μM S100A4 + 50 μM Ca^2+ (stopped-flow reaction chamber concentrations). A superposed fit to a single exponential yields kobs = 17 s^− 1. […] (d) As in (a), but with 2.5 μM M200 premixed with 5 μM S100A4. A biphasic exponential fit yielded rate constants of 13 s^− 1 (A = 26%) and 0.30 s^− 1 (A = 74%). […] Experiments were carried out in either 20 mM NaCl, 20 mM Tris, 1 mM DTT, and 100 μM Ca^2+ at pH 7.5 and 20 °C (a and b; cf. Malashkevich et al.[17]), or 100 mM NaCl, 10 mM Hepes, and 100 μM Ca^2+ at pH 7.5 and 20 °C (c and d). […] Rate constants were unaffected by the inclusion of 1 mM Mg^2+.
as §1, with “Rate constants were obtained by fitting to single-exponential or double-exponential functions using Kaleidagraph (Synergy Software) or Applied Photophysics Pro-Data software. Modeling of kinetic schemes was performed using Berkeley Madonna software.” left out

S100A4 [5] = molecular target: T1, S100A4; experiment: Competition of M32/M16^N with M200 for S100A4 (turbidity); format: biochemical; settings: 250 μM peptide, 5 μM M200, 10 μM S100A4, Ca^2+
Procedure: Fig. 9 Dissociation of M200 filaments by S100A4. (a) Initially, M200 was added (i) from a concentrated stock in 0.5 M NaCl to give a final concentration of 5 μM M200 (with respect to the polypeptide chain) in 100 mM NaCl, 10 mM Hepes, and 0.1 mM Ca^2+ at pH 7.5 and 20 °C. A biphasic rise in turbidity was recorded for 200 s (continuous line). Then 10 μM S100A4 (with respect to monomer concentration) was added (ii), followed by 0.2 mM EGTA (iii) and 1 mM Ca^2+ (iv). […] (b) M200 was diluted (i) into 100 mM NaCl to form filaments as in (a), then 5 μM S100A4 was added (ii), causing a 54% drop in turbidity. A further 5 μM S100A4 (iii) caused turbidity to fall to almost zero. (c) Stopped-flow records monitoring the dissociation of 5 μM M200 filaments on jumping [NaCl] from 100 mM to 120 mM NaCl. Other components of the buffer were 20 mM Hepes, 1 mM Mg^2+, and 100 μM Ca^2+ at pH 7.5 and 20 °C. […] In the presence of 20 μM S100A4 (lower trace), the turbidity decreased by 87% with a rate constant of 0.2 s^− 1.
Further information on Scheme 2 was obtained from competition assays. […] An independent estimate of K5 based on the Ca^2+ dependence of the turbidity assay yielded a value of 0.003 μM (see Supplementary Data).
The decrease in fluorescence, […]
that F-M16N binding was slightly faster. […]
as §2

S100A4 [6] = molecular target: T1, S100A4; settings: cited from earlier work
Excerpt: The site between helix III and helix IV of S100A4, exposed in the presence of Ca^2+, could accommodate an α-helical target of about 16 residues. The longer M32 mini ...

T1 sequence (P26447 whole entry): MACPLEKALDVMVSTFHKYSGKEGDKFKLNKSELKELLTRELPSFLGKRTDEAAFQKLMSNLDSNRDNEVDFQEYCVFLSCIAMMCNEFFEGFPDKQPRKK

CSCC[C@H](NC(=O)[C@H](C)NC(=O)[C@H](CC(=O)O)NC(=O)CCCCCNC(=S)Nc1ccc2c(c1)C(=O)OC21c2ccc(O)cc2Oc2cc(O)ccc21)C(=O)N[C@@H](CC(N)=O)C(=O)N[C@@H](CCCNC(=N)N)C(=O)N[C@@H](CCC(=O)O)C(=O)N[C@H](C(=O)N[C@@H](CO)C(=O)N[C@@H](CO)C(=O)N[C@@H](CC(C)C)C(=O)N[C@@H](CCCCN)C(=O)N[C@@H](CC(N)=O)C(=O)N[C@@H](CCCCN)C(=O)N[C@@H](CC(C)C)C(=O)N[C@@H](CCCNC(=N)N)C(=O)N[C@@H](CCCNC(=N)N)C(N)=O)C(C)C [F-M16^N]
displacement rate constant by excess M32 (S100A4 [1]; 0.1 μM F-M16^N, 5 μM S100A4, 60 μM M32, Ca^2+): 7.7 s^− 1 | kobs on mixing with EGTA (Ca^2+ dissociation from complex, k− 3) (S100A4 [1]; 0.1 μM F-M16^N, 10 μM S100A4, 50 μM Ca^2+, 1 mM EGTA): 9.4 s^− 1 | kobs of binding (S100A4 [1]; 0.1 μM F-M16^N, 25 μM S100A4): 138 s^− 1 | calculated kobs via k− 2 and k− 1 route (S100A4 [1]; 10 μM S100A4): 1.8 s^− 1 | maximum kobs (S100A4 [1]; above 25 μM S100A4): 150 s^− 1 | association rate constant k2 relative to M32 (S100A4 [1]; competition with equimolar M32, modelled): about twice as large as that of M32 | fluorescence quench overshoot (S100A4 [1]; equimolar F-M16N and M32 mixed with equimolar S100A4): 12% | amplitude of fluorescence decrease with competitor (S100A4 [1]; equimolar F-M16N and M32 with equimolar S100A4, relative to absence of M32): about half the amplitude observed in the absence of M32 | dissociation rate constants, F-M16N vs M32 (S100A4 [1]): similar | kon (S100A4 [1]; read-out: association rate constant kon (k2)): 4.9e+06 M⁻¹ s⁻¹ | koff (S100A4 [1]; read-out: dissociation rate constant koff (k− 2)): 6.2 s⁻¹ | k3, Ca^2+ binding to preformed peptide–S100A4 complex (S100A4 [1]; thermodynamic balance of Scheme 1): > 5 × 10^8 M^− 1 s^− 1 | k1 (S100A4 [2]; Ca^2+ association to free S100A4, common to all targets): 3.2 μM^− 1 s^− 1 | k3 (S100A4 [2]; Ca^2+ association to peptide–S100A4): > 500 μM^− 1 s^− 1 | k− 1 (S100A4 [2]; Ca^2+ dissociation from free S100A4, common to all targets): 16 s^− 1 | k− 3 (S100A4 [2]): 9.4 s^− 1 | k2 (S100A4 [2]): 4.9 μM^− 1 s^− 1 | k− 2 (S100A4 [2]): 6.2 s^− 1 | quench of total fluorescein fluorescence on binding (S100A4 [3]): ~35%

CSCC[C@H](NC(=O)[C@H](C)NC(=O)[C@H](CC(=O)O)NC(=O)[C@H](C)NC(C)=O)C(=O)N[C@@H](CC(N)=O)C(=O)N[C@@H](CCCNC(=N)N)C(=O)N[C@@H](CCC(=O)O)C(=O)N[C@H](C(=O)N[C@@H](CO)C(=O)N[C@@H](CO)C(=O)N[C@@H](CC(C)C)C(=O)N[C@@H](CCCCN)C(=O)N[C@@H](CC(N)=O)C(=O)N[C@@H](CCCCN)C(=O)N[C@@H](CC(C)C)C(=O)N[C@@H](CCCNC(=N)N)C(=O)N[C@@H](CCCNC(=N)N)C(=O)NCC(=O)N[C@@H](CC(=O)O)C(=O)N[C@@H](CC(C)C)C(=O)N1CCC[C@H]1C(=O)N[C@@H](Cc1ccccc1)C(=O)N[C@H](C(=O)N[C@H](C(=O)N1CCC[C@H]1C(=O)N[C@@H](CCCNC(=N)N)C(=O)N[C@@H](CCCNC(=N)N)C(=O)N[C@@H](CCSC)C(=O)N[C@@H](C)C(=O)N[C@@H](CCCNC(=N)N)C(=O)N[C@@H](CCCCN)C(=O)NCC(N)=O)C(C)C)C(C)C)C(C)C [M32]
kobs, Ca^2+ dissociation with peptide (S100A4 [4]; 50 μM peptide premixed with 10 μM S100A4, 100 mM NaCl, 10 mM Hepes, 100 μM Ca^2+, pH 7.5, 20 °C): 3.3 s^− 1 | stoichiometry (discussion) (S100A4 [4]; S100A4 concentration from absorbance at 280 nm): one mol of M32 peptide binds to two S100A4 monomers | dissociation rate constants, F-M16N vs M32 (S100A4 [1]): similar | Kd (S100A4 [2]; Ca^2+ binding to peptide–S100A4, limit from K3 = K1K2/K0, read-out: K3): < 0.15 µM | k− 3 (S100A4 [2]): 3.2 s^− 1 | k2 (S100A4 [2]): ∼ 2 μM^− 1 s^− 1 | Kd (S100A4 [2]; peptide binding to S100A4 without Ca^2+, read-out: K0): > 100 µM | k− 2 (S100A4 [2]): ∼ 6 s^− 1 | inhibition of turbidity change amplitude (S100A4 [5]): 50%

R1893-R1923 myosin fragment: R1893-R1923 myosin fragment of Malashkevich et al.
stoichiometry (S100A4 [6]): ~0.5 mol of peptide per mole of S100A4 (dimer)
